Test results reported in patent US10597388B2, “Pyridazinone herbicides” (FMC CORPORATION, priority 2014, dated 2020).

How the values were obtained:
Type in all cases: in vivo
[1] = system: kochia (Kochia scoparia); assay: Test C greenhouse herbicide test, postemergence
Summary of the method: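 Greenhouse postemergence spray on plants 2–18 cm tall; response judged visually after 13–15 d relative to untreated controls using a 0 (none) to 100 (full control) scale.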

[2] = system: nutsedge, yellow (yellow nutsedge, Cyperus esculentus); assay: Test C greenhouse herbicide test, pre- and postemergence
Summary of the method: (§1)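 Visual 0–100 injury score (100 = complete control) taken against untreated controls after 13–15 d in greenhouse. Test chemicals, formulated in solvent plus surfactant, applied preemergence to seeds in loam–sand soil or postemergence to 1- to 4-leaf plants (2–18 cm).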

[3] = system: blackgrass (Alopecurus myosuroides); assay: as above
Summary of the method: as §1

[4] = system: waterhemp (common waterhemp, Amaranthus rudis); assay: as above
Summary of the method: as §1

[5] = system: foxtail, giant (giant foxtail, Setaria faberii); assay: as above
Summary of the method: as §1

[6] = system: wheat (winter wheat, Triticum aestivum); assay: as above
Summary of the method: as §1

[7] = system: oilseed rape (Brassica napus); assay: as above
Summary of the method: as §1

[8] = system: johnsongrass (Sorghum halepense); assay: as above
Summary of the method: as §1

[9] = system: lambsquarters (Chenopodium album); assay: as above
Summary of the method: as §1

[10] = system: pigweed (Amaranthus retroflexus); assay: as above
Summary of the method: as §1

[11] = system: ryegrass, Italian (Italian ryegrass, Lolium multiflorum); assay: as above
Summary of the method: as §1

[12] = system: ragweed (common ragweed, Ambrosia elatior); assay: as above
Summary of the method: as §1

[13] = system: crabgrass, large (large crabgrass, Digitaria sanguinalis); assay: as above
Summary of the method: as §1

[14] = system: soybean (Glycine max); assay: as above
Summary of the method: as §1

[15] = system: morningglory (Ipomoea coccinea); assay: as above
Summary of the method: as §1

[16] = system: corn (Zea mays); assay: as above
Summary of the method: as §1

[17] = Postemergence, 31 g ai/ha, 0 to 100 scale (0 no effect, 100 complete control)
[18] = Postemergence, 125 g ai/ha, scale 0 to 100, 0 is no effect, 100 is complete control
[19] = Postemergence, 250 g ai/ha, scale 0 to 100, 0 no effect, 100 complete control, 13 to 15 d
[20] = postemergence, 62 g ai/ha, scale 0 to 100, 0 no effect, 100 complete control
[21] = Preemergence, 31 g ai/ha, scale 0 to 100, 0 is no effect, 100 is complete control
[22] = Preemergence, 62 g ai/ha, scale 0 to 100, 0 is no effect, 100 is complete control
[23] = Preemergence, 125 g ai/ha, scale 0 to 100, 0 is no effect, 100 is complete control
[24] = Preemergence, 250 g ai/ha, scale 0 to 100 (0 no effect, 100 complete control)

Cc1cc(C)c2sc(C)c(-c3c(OC(=O)OC(C)C)c(C)nn(C)c3=O)c2c1 [Compound 67]
70: Nutsedge, Yellow plant response rating [2, 24] | Nutsedge, Yellow plant response rating [2, 20] | Plant response rating, Waterhemp [4, 19] | Plant response rating, Waterhemp [4, 21] | Waterhemp plant response rating [4, 20] | Foxtail, Giant plant response rating [5, 17] | Ragweed plant response rating [12, 17] | Plant response rating, Crabgrass, Large [13, 22] | Plant response rating, Morningglory [15, 21]
65: Nutsedge, Yellow plant response rating [2, 17] | Plant response rating, Blackgrass [3, 18] | Plant response rating, Waterhemp [4, 23] | Crabgrass, Large plant response rating [13, 24]
85: Plant response rating, Nutsedge, Yellow [2, 19] | Waterhemp plant response rating [4, 24] | Plant response rating, Foxtail, Giant [5, 19] | Lambsquarters plant response rating [9, 17] | Plant response rating, Lambsquarters [9, 23] | Lambsquarters plant response rating [9, 24] | Plant response rating, Pigweed [10, 19] | Pigweed plant response rating [10, 20] | Plant response rating, Ryegrass, Italian [11, 18] | Plant response rating, Ryegrass, Italian [11, 19] | Plant response rating, Ryegrass, Italian [11, 23] | Plant response rating, Ragweed [12, 22]
40: Blackgrass plant response rating [3, 17] | Plant response rating, Blackgrass [3, 23] | Oilseed Rape plant response rating [7, 17] | Plant response rating, Ryegrass, Italian [11, 22] | Plant response rating, Crabgrass, Large [13, 19]
98: Plant response rating, Foxtail, Giant [5, 23] | Plant response rating, Ragweed [12, 18] | Ragweed plant response rating [12, 24]
55: Plant response rating, Nutsedge, Yellow [2, 23]
90: Plant response rating, Lambsquarters [9, 18] | Plant response rating, Pigweed [10, 22] | Ryegrass, Italian plant response rating [11, 24] | Morningglory plant response rating [15, 24]
35: Plant response rating, Kochia [1, 18] | Crabgrass, Large plant response rating [13, 17] | Plant response rating, Crabgrass, Large [13, 18] | Crabgrass, Large plant response rating [13, 20]
100: Foxtail, Giant plant response rating [5, 24] | Plant response rating, Lambsquarters [9, 19] | Pigweed plant response rating [10, 17] | Pigweed plant response rating [10, 24] | Plant response rating, Ragweed [12, 23] | Plant response rating, Morningglory [15, 18] | Plant response rating, Morningglory [15, 19]
0: Kochia plant response rating [1, 17] | Wheat plant response rating [6, 17] | Plant response rating, Wheat [6, 18] | Plant response rating, Wheat [6, 19] | Plant response rating, Wheat [6, 21] | Plant response rating, Wheat [6, 22] | Plant response rating, Wheat [6, 23] | Wheat plant response rating [6, 24] | Wheat plant response rating [6, 20] | Plant response rating, Oilseed Rape [7, 21] | Plant response rating, Oilseed Rape [7, 22] | Plant response rating, Oilseed Rape [7, 23] | Plant response rating, Soybean [14, 21] | Plant response rating, Soybean [14, 22] | Plant response rating, Soybean [14, 23] | Soybean plant response rating [14, 24] | Plant response rating, Corn [16, 21] | Plant response rating, Corn [16, 22] | Plant response rating, Corn [16, 23] | Corn plant response rating [16, 24]
10: Plant response rating, Nutsedge, Yellow [2, 21] | Plant response rating, Johnsongrass [8, 19] | Plant response rating, Johnsongrass [8, 21] | Plant response rating, Johnsongrass [8, 23] | Plant response rating, Crabgrass, Large [13, 21] | Plant response rating, Crabgrass, Large [13, 23] | Plant response rating, Soybean [14, 19] | Plant response rating, Corn [16, 18]
75: Plant response rating, Waterhemp [4, 18] | Plant response rating, Foxtail, Giant [5, 21] | Foxtail, Giant plant response rating [5, 20] | Plant response rating, Oilseed Rape [7, 18] | Plant response rating, Oilseed Rape [7, 19] | Plant response rating, Pigweed [10, 21] | Ragweed plant response rating [12, 20]
80: Plant response rating, Kochia [1, 19] | Plant response rating, Nutsedge, Yellow [2, 18] | Plant response rating, Blackgrass [3, 19] | Plant response rating, Waterhemp [4, 22] | Plant response rating, Foxtail, Giant [5, 18] | Plant response rating, Foxtail, Giant [5, 22] | Plant response rating, Lambsquarters [9, 21] | Plant response rating, Lambsquarters [9, 22] | Plant response rating, Pigweed [10, 18] | Ryegrass, Italian plant response rating [11, 17] | Ryegrass, Italian plant response rating [11, 20] | Plant response rating, Morningglory [15, 22] | Plant response rating, Morningglory [15, 23]
95: Lambsquarters plant response rating [9, 20] | Plant response rating, Pigweed [10, 23] | Plant response rating, Ragweed [12, 19] | Morningglory plant response rating [15, 17] | Morningglory plant response rating [15, 20]
30: Kochia plant response rating [1, 20] | Plant response rating, Blackgrass [3, 22] | Johnsongrass plant response rating [8, 24] | Plant response rating, Ryegrass, Italian [11, 21]
20: Plant response rating, Nutsedge, Yellow [2, 22] | Oilseed Rape plant response rating [7, 24] | Plant response rating, Johnsongrass [8, 22] | Plant response rating, Corn [16, 19]
60: Plant response rating, Blackgrass [3, 21] | Blackgrass plant response rating [3, 24] | Blackgrass plant response rating [3, 20] | Waterhemp plant response rating [4, 17] | Plant response rating, Ragweed [12, 21]
5: Johnsongrass plant response rating [8, 17] | Plant response rating, Johnsongrass [8, 18] | Johnsongrass plant response rating [8, 20] | Soybean plant response rating [14, 17] | Plant response rating, Soybean [14, 18] | Soybean plant response rating [14, 20] | Corn plant response rating [16, 17] | Corn plant response rating [16, 20]
50: Oilseed Rape plant response rating [7, 20]

Cc1ccc2ccccc2c1-c1c(O)cnn(C)c1=O [Compound 56]
80: Pigweed plant response rating [10, 17]
40: Plant response rating, Blackgrass [3, 19] | Ryegrass, Italian plant response rating [11, 17]
100: Plant response rating, Kochia [1, 19]
0: Nutsedge, Yellow plant response rating [2, 17] | Blackgrass plant response rating [3, 17] | Foxtail, Giant plant response rating [5, 17] | Plant response rating, Foxtail, Giant [5, 18] | Foxtail, Giant plant response rating [5, 20] | Wheat plant response rating [6, 17] | Wheat plant response rating [6, 20] | Oilseed Rape plant response rating [7, 17] | Plant response rating, Oilseed Rape [7, 18] | Plant response rating, Oilseed Rape [7, 19] | Oilseed Rape plant response rating [7, 20] | Johnsongrass plant response rating [8, 17] | Johnsongrass plant response rating [8, 20] | Lambsquarters plant response rating [9, 17] | Ragweed plant response rating [12, 17] | Ragweed plant response rating [12, 20] | Crabgrass, Large plant response rating [13, 17] | Soybean plant response rating [14, 17] | Plant response rating, Soybean [14, 18] | Plant response rating, Soybean [14, 19] | Soybean plant response rating [14, 20] | Corn plant response rating [16, 17] | Plant response rating, Corn [16, 18] | Plant response rating, Corn [16, 19] | Corn plant response rating [16, 20]
60: Plant response rating, Nutsedge, Yellow [2, 19] | Ryegrass, Italian plant response rating [11, 20] | Plant response rating, Ragweed [12, 18] | Plant response rating, Ragweed [12, 19]
75: Waterhemp plant response rating [4, 20] | Pigweed plant response rating [10, 20]
65: Plant response rating, Ryegrass, Italian [11, 18]
55: Waterhemp plant response rating [4, 17]
5: Nutsedge, Yellow plant response rating [2, 20] | Plant response rating, Blackgrass [3, 18] | Blackgrass plant response rating [3, 20] | Plant response rating, Wheat [6, 18] | Plant response rating, Wheat [6, 19] | Plant response rating, Johnsongrass [8, 18] | Plant response rating, Crabgrass, Large [13, 18] | Crabgrass, Large plant response rating [13, 20]
10: Plant response rating, Johnsongrass [8, 19]
50: Plant response rating, Nutsedge, Yellow [2, 18] | Plant response rating, Foxtail, Giant [5, 19] | Lambsquarters plant response rating [9, 20] | Plant response rating, Morningglory [15, 18] | Plant response rating, Morningglory [15, 19] | Morningglory plant response rating [15, 20]
35: Morningglory plant response rating [15, 17]
95: Plant response rating, Waterhemp [4, 18]
20: Plant response rating, Crabgrass, Large [13, 19]
85: Plant response rating, Lambsquarters [9, 18] | Plant response rating, Lambsquarters [9, 19] | Plant response rating, Pigweed [10, 18]
90: Plant response rating, Kochia [1, 18] | Kochia plant response rating [1, 20] | Plant response rating, Waterhemp [4, 19] | Plant response rating, Pigweed [10, 19] | Plant response rating, Ryegrass, Italian [11, 19]
70: Kochia plant response rating [1, 17]
